For 30 compounds, IC50 results are on record in US9206128B2 (Constellation Pharmaceuticals, Inc., priority 2011, dated 2015).

Each structure is given as a SMILES string. Some results are limits rather than exact numbers.

Assay [1] concerns the target EZH2 (Homo sapiens, UniProt Q15910). The experiment in a line: EZH2 activity inhibition assay (rPRC2, 3H SAM, biotinylated oligonucleosomes, FlashPlate). It is filed as biochemical. Particulars: rPRC2, 2 nM EZH2, 0.2 μM 3H SAM, top concentration 80 μM. As to the method: (§1) EZH2 Assay: Assays were carried out by mixing rPRC2 together with biotinylated oligonucleosome substrates in the presence of the radio-labeled enzyme co-factor, S-adenosyl-L-methionine (^3H SAM) (Perkin Elmer) and monitoring the enzymatically mediated transfer of tritiated methyl groups from ^3H SAM to histone lysine residues. The amount of resulting tritiated methyl histone product was measured by first capturing the biotinylated oligonucleosomes in streptavidin (SAV) coated FlashPlates (Perkin Elmer), followed by a wash step to remove un-reacted ^3H SAM, and then counting on a TopCount NXT 384 well plate scintillation counter (Perkin Elmer).
A 12.5 μL volume of the HMT enzyme, H3K27me3 peptide and oligonucleosome substrate in assay buffer was added to each well of the assay plate using a Multidrop Combi (ThermoFisher). Compounds were pre-incubated with the enzyme for 20 min, followed by initiation of the methyltransferase reaction by addition of 12.5 μL of 3H SAM in assay buffer (final volume=25 μL). […] Stopped reactions were transferred to SAV coated Flashplates (Perkin Elmer), incubated for 120 min, washed with a plate washer, and then read on the TopCount NXT (1.0 min/well) to measure the amount of methyl histone product formed during the reaction.

For assay [2], the target named is Y641N EZH2 (Homo sapiens, UniProt Q15910, Y641N). The experiment in a line: Y641N EZH2 activity inhibition assay (as EZH2 assay, reconstituted H3K27Me2 oligonucleosomes as substrate). The settings on record: Y641N EZH2 mutant enzyme. It is filed as biochemical. The protocol: as §1, with “Elmer). The final assay conditions for EZH2 were as follows: 50 mM Tris Buffer pH 8.5, 1 mM DTT, 69 μM Brij-35 detergent, 5.0 mM MgCl2, 0.1 mg/mL BSA, 0.2 μM ^3H SAM, 0.2 μM biotinylated oligonucleosomes, 3.6 μM H3K27me3 peptide and 2 nM EZH2.” for “Elmer).”
A 12.5 μL volume of the HMT enzyme, H3K27me3 peptide and oligonucleosome substrate in assay buffer was added to each well of the assay plate using a Multidrop Combi (ThermoFisher). Compounds were pre-incubated with the enzyme for 20 min, followed by initiation of the methyltransferase reaction by addition of 12.5 μL of 3H SAM in assay buffer (final volume=25 μL). The final concentrations of compounds ranged from a top default concentration of 80 μM down to 0.16 μM in ten 2-fold dilution steps. Reactions were carried out for 60 minutes and quenched with 20 μL per well of 1.96 mM SAH, 50 mM Tris PH 8.5, 200 mM EDTA. Stopped reactions were transferred to SAV coated Flashplates (Perkin Elmer), incubated for 120 min, washed with a plate washer, and then read on the TopCount NXT (1.0 min/well) to measure the amount of methyl histone product formed during the reaction.

EZH2, sequence (Q15910 whole entry): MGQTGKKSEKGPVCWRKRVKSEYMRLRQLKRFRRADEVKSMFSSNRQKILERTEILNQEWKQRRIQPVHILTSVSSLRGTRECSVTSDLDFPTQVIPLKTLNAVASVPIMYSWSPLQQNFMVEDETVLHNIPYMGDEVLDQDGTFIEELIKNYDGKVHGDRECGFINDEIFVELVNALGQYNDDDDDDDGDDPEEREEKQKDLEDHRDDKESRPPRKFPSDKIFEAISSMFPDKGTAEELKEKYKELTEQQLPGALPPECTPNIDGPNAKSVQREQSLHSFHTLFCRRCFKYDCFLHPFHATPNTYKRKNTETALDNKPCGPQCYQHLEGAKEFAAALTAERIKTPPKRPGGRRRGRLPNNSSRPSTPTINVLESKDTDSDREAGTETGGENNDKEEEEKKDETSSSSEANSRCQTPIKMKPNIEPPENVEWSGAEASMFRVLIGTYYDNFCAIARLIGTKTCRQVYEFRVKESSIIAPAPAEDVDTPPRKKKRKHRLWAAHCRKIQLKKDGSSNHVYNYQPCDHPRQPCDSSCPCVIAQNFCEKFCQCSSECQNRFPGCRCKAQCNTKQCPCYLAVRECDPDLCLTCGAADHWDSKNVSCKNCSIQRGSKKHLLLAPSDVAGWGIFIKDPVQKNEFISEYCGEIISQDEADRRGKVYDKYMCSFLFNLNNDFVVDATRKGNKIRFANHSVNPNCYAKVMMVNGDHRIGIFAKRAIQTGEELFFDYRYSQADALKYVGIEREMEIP
EZH2, sequence (O75530 whole entry partner): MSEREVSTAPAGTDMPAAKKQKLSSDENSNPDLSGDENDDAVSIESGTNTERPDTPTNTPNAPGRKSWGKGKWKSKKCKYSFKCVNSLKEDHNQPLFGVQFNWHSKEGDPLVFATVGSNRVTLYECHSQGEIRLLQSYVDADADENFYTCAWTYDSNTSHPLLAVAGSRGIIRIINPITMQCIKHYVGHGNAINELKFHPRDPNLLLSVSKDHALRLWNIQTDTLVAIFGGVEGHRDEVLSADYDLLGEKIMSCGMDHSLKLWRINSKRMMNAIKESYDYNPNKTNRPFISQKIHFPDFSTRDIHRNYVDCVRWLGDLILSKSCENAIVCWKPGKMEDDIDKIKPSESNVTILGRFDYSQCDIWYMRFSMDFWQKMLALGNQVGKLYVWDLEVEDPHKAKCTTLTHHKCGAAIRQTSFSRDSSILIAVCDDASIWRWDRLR
EZH2, sequence (Q15022 whole entry partner): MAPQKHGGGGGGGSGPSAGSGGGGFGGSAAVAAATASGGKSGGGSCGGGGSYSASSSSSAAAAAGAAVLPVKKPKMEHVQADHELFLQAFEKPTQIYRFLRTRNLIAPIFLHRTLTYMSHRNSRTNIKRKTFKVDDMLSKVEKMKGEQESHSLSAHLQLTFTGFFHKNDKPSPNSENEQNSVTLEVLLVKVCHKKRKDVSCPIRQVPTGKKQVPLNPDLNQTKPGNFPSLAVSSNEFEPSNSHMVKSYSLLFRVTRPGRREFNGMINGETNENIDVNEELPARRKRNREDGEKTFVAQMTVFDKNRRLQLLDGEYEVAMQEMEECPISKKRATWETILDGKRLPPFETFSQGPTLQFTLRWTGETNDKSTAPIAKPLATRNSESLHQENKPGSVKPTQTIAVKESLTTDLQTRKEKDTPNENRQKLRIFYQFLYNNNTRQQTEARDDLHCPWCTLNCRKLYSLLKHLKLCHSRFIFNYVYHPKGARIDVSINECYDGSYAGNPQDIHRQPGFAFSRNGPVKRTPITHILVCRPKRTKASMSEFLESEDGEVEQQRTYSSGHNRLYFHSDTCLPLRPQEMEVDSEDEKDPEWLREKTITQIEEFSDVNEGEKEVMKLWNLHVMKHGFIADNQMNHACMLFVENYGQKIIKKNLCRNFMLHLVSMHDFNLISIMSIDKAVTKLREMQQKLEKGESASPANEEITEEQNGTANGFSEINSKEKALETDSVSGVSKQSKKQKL
Y641N EZH2, sequence (Q15910 whole entry Y641N): as the sequence (Q15910 whole entry) above, with Y641N counted along it
Y641N EZH2, sequence (O75530 whole entry partner): as the sequence (O75530 whole entry partner) above
Y641N EZH2, sequence (Q15022 whole entry partner): as the sequence (Q15022 whole entry partner) above

The term IC50 denotes the concentration needed to halve the response being measured. A higher IC50 goes with a need for much substance. Take `Cc1cc(C)c(CNC(=O)c2ccc(C(C)Oc3ccccc3)c(F)c2)c(=O)[nH]1` (single isomer, unassigned) [Compound I-160, (R)— or (S)-3-fluoro-N-((2-hydroxy-4,6-dimethylpyridin-3-yl)methyl)-4-(1-phenoxyethyl)benzamide]: the half-maximal inhibitory concentration (IC50) in assay [1] and in assay [2] was greater than 80 µM in each case.

In the case of `Cc1cc(C)c(CNC(=O)c2ccc(C(C)Oc3ccccc3)c(F)c2)c(=O)[nH]1` (single isomer, unassigned) [Compound I-161, (S)— or (R)-3-fluoro-N-((2-hydroxy-4,6-dimethylpyridin-3-yl)methyl)-4-(1-phenoxyethyl)benzamide], the IC50 in assay [1] and in assay [2] was less than 1 µM throughout.

As for `Cc1cc(C)c(CNC(=O)c2ccc(C(C)Oc3ccccc3)cc2)c(=O)[nH]1` (stereo in doubt) [Compound I-30, (S)—N-((2-hydroxy-4,6-dimethylpyridin-3-yl)methyl)-4-(1-phenoxyethyl)benzamide], the IC50 in assay [1] was 10 to 50 µM; in assay [2], greater than 80 µM.

In the case of `Cc1cc(C)c(CNC(=O)c2ccc(Oc3ccccc3C#N)cc2)c(=O)[nH]1` [Compound I-2, 4-(2-cyanophenoxy)-N-((2-hydroxy-4,6-dimethylpyridin-3-yl)methyl)benzamide], the IC50 in assay [1] was 1 to 10 µM; in assay [2], 10 to 50 µM.

For the compound `Cc1cc(C)c(CNC(=O)c2ccc(COc3cccc(-c4ccc(N)nc4)c3)cc2)c(=O)[nH]1` [Compound I-3, 4-((3-(6-aminopyridin-3-yl)phenoxy)methyl)-N-((2-hydroxy-4,6-dimethylpyridin-3-yl)methyl)benzamide], the IC50 in assay [1] was less than 1 µM; in assay [2], 1 to 10 µM.

In assay [1], `CCc1cccc(Oc2ccc(C(=O)NCc3c(C)cc(C)[nH]c3=O)cc2C)c1C#N` [Compound I-4, 4-(2-cyano-3-ethylphenoxy)-N-((2-hydroxy-4,6-dimethylpyridin-3-yl)methyl)-3-methylbenzamide] had an IC50 of 1 to 10 µM.

In assay [1], `Cc1cc(C)c(CNC(=O)c2ccc(Oc3cccc(-c4cn[nH]c4)c3C#N)c(Cl)c2)c(=O)[nH]1` [Compound I-5, 3-chloro-4-(2-cyano-3-(1H-pyrazol-4-yl)phenoxy)-N-((2-hydroxy-4,6-dimethylpyridin-3-yl)methyl)benzamide] registered an IC50 of 1 to 10 µM.

Take `Cc1cc(C)c(CNC(=O)c2ccc(Oc3cccc(-c4ccncc4)c3C#N)c(Cl)c2)c(=O)[nH]1` [Compound I-6, 3-chloro-4-(2-cyano-3-(pyridin-4-yl)phenoxy)-N-((2-hydroxy-4,6-dimethylpyridin-3-yl)methyl)benzamide]: in assay [1], the IC50 lay within 1 to 10 µM.

`Cc1cc(C)c(CNC(=O)c2ccc(Oc3ccccc3-c3ccncc3)c(Cl)c2)c(=O)[nH]1` [Compound I-7, 3-chloro-N-((2-hydroxy-4,6-dimethylpyridin-3-yl)methyl)-4-(2-(pyridin-4-yl)phenoxy)benzamide] gave an IC50 in assay [1] of 1 to 10 µM.

Take `Cc1cc(C)c(CNC(=O)c2ccc(Oc3ccccc3C#N)c(Cl)c2)c(=O)[nH]1` [Compound I-10, 3-chloro-4-(2-cyanophenoxy)-N-((2-hydroxy-4,6-dimethylpyridin-3-yl)methyl)benzamide]: the IC50 in assay [1] and in assay [2] was 1 to 10 µM each time.

Consider `Cc1cc(C)c(CNC(=O)c2ccc(COc3ccccc3)cc2)c(=O)[nH]1` [Compound I-11, N-((2-hydroxy-4,6-dimethylpyridin-3-yl)methyl)-4-(phenoxymethyl)benzamide], for which the IC50 in assay [1] and in assay [2] was 1 to 10 µM each time.

Take `Cc1cc(C)c(CNC(=O)c2ccc(OCc3ccccc3)cc2)c(=O)[nH]1` [Compound I-12, 4-(benzyloxy)-N-((2-hydroxy-4,6-dimethylpyridin-3-yl)methyl)benzamide]: the IC50 in assay [1] lay in the range of 1 to 10 µM; in assay [2] it was 10 to 50 µM.

Take `Cc1cc(C)c(CNC(=O)c2ccc(N(C)c3ccccc3)cc2)c(=O)[nH]1` [Compound I-13]: the IC50 in assay [1] is less than 1 µM; in assay [2], 1 to 10 µM.

`Cc1cc(C)c(CNC(=O)c2ccc(Oc3ncccn3)cc2)c(=O)[nH]1` [Compound I-14]: the IC50 is greater than 50 µM in assay [1] and greater than 80 µM in assay [2].

With `COc1ccnc(Oc2ccc(C(=O)NCc3c(C)cc(C)[nH]c3=O)cc2)n1` [Compound I-15], the figures for the IC50 in assay [1] and in assay [2] were greater than 50 µM and greater than 80 µM, respectively.

As to `Cc1cc(C)c(CNC(=O)c2ccc(Oc3ccccc3)nc2)c(=O)[nH]1` [Compound I-16], the concentration for half-maximal inhibition (IC50) in assay [1] is 1 to 10 µM; in assay [2], 10 to 50 µM.

For the compound `Cc1cc(C)c(CN(C)C(=O)c2ccc(Oc3cccc(-c4ccncn4)c3C#N)c(Cl)c2)c(O)n1` [Compound I-17, 3-chloro-4-(2-cyano-3-(pyrimidin-4-yl)phenoxy)-N-((2-hydroxy-4,6-dimethylpyridin-3-yl)methyl)-N-methylbenzamide], the half-inhibitory concentration (IC50) is 1 to 10 µM in assay [1] and greater than 50 µM in assay [2].

For `Cc1cc(C)c(CNC(=O)c2ccc(Nc3ccccc3)nc2)c(=O)[nH]1` [Compound I-18], the IC50 was 10 to 50 µM in assay [1] and greater than 80 µM in assay [2].

As to `Cc1cc(C)c(CNC(=O)c2ccc(Nc3ccccc3)cc2)c(=O)[nH]1` [Compound I-19], the IC50 in assay [1] was 1 to 10 µM; in assay [2], 10 to 50 µM.

Take `Cc1cc(C)c(CN(C)C(=O)c2ccc(Oc3ccccc3)cc2)c(O)n1` [Compound I-20, N-((2-hydroxy-4,6-dimethylpyridin-3-yl)methyl)-N-methyl-4-phenoxybenzamide]: the results for the IC50 in assay [1] and in assay [2] were 1 to 10 µM and greater than 50 µM, respectively.

Regarding `Cc1cc(C)c(CNC(=O)c2ccc(Oc3ccccc3)cn2)c(=O)[nH]1` [Compound I-21, N-((2-hydroxy-4,6-dimethylpyridin-3-yl)methyl)-5-phenoxypicolinamide], the IC50 in assay [1] was 1 to 10 µM; in assay [2], 10 to 50 µM.

Turning to `Cc1cc(C)c(CNC(=O)c2ccc(Oc3ccccc3)cc2Cl)c(=O)[nH]1` [Compound I-22], the IC50 was less than 1 µM in assay [1] and 1 to 10 µM in assay [2].

In the case of `Cc1cc(C)c(CNC(=O)c2ccc(C(C)Oc3ccccc3)cc2)c(=O)[nH]1` (centres unmarked) [Compound I-23, N-((2-hydroxy-4,6-dimethylpyridin-3-yl)methyl)-4-(1-phenoxyethyl)benzamide], the IC50 in assay [1] and in assay [2] was less than 1 µM in each case.

With `Cc1cc(C)c(CNC(=O)c2ccc(C(O)c3ccccc3)cc2)c(=O)[nH]1` (centres unmarked) [Compound I-24], the half-maximal inhibitory concentration (IC50) was 10 to 50 µM in assay [1] and greater than 50 µM in assay [2].

In the case of `Cc1cc(C)c(CNC(=O)c2ccc(C(C)(O)c3ccccc3)cc2)c(=O)[nH]1` (centres unmarked) [Compound I-25], the IC50 in assay [1] was 1 to 10 µM; in assay [2] it was 10 to 50 µM.

In the case of `Cc1cc(C)c(CNC(=O)c2ccc(S(=O)(=O)c3ccccc3)cc2)c(=O)[nH]1` [Compound I-26, N-((2-hydroxy-4,6-dimethylpyridin-3-yl)methyl)-4-(phenylsulfonyl)benzamide], the IC50 in assay [1] was 10 to 50 µM; in assay [2], greater than 80 µM.

Consider `Cc1cc(C)c(CNC(=O)c2ccc(COc3ccccc3)cc2C)c(=O)[nH]1` [Compound I-27, N-((2-hydroxy-4,6-dimethylpyridin-3-yl)methyl)-2-methyl-4-(phenoxymethyl)benzamide], for which the IC50 in assay [1] is less than 1 µM; in assay [2], 1 to 10 µM.

In the case of `Cc1cc(C)c(CNC(=O)c2ccc(Oc3ccccc3)cc2C)c(=O)[nH]1` [Compound I-28, N-((2-hydroxy-4,6-dimethylpyridin-3-yl)methyl)-2-methyl-4-phenoxybenzamide], the IC50 in assay [1] is 1 to 10 µM; in assay [2], 10 to 50 µM.

`Cc1cc(C)c(CNC(=O)c2ccc([S+]([O-])c3ccccc3)cc2)c(=O)[nH]1` (centres unmarked) [Compound I-29, N-((2-hydroxy-4,6-dimethylpyridin-3-yl)methyl)-4-(phenylsulfinyl)benzamide]: the IC50 in assay [1] is 10 to 50 µM; in assay [2] it was greater than 80 µM.

With `Cc1cc(C)c(CNC(=O)c2ccc([C@H](C)Oc3ccccc3)cc2)c(O)n1` [Compound I-31, (S)—N-((2-hydroxy-4,6-dimethylpyridin-3-yl)methyl)-4-(1-phenoxyethyl)benzamide], the IC50 in assay [1] and in assay [2] was less than 1 µM in each case.
